# Laboratory results as given in patent publication US12501919B2, “Method for increasing anthocyanin content in carrots” (UNIVERSITY OF COPENHAGEN, priority 2016, dated 2025).
# “Also recorded” adds a separate entry of the source.
# How the values were obtained:
# [1] = tested on: black carrot (Deep Purple F1) roots; assay: Field trial, foliar spray on black carrot, small plots harvested 21 weeks after sowing; type: in vivo, Daucus carota ssp. sativus var. atrorubens Alef.; settings: for increase of mean anthocyanin concentration of treated plants compared with respective controls: 21 weeks after sowing, foliar spray, 6 applications; for accumulation of anthocyanin in roots: field-applied, measured twenty-one weeks after sowing (FIG. 1, FIG. 2)
# Method: (§1) The experiment consisted on a factorial combination of […] (Deep Purple F1) and three sowing dates: 19 May 2014, and 18 and 25 May 2015, in field trials in Taastrup, Denmark, at the experimental station in Højbakkegård (latitude 55, longitude […]). Seeds were provided by Chr. Hansen A/S. Plants were cultivated on loamy soil. Air temperatures during the growing period were slightly different in both years of cultivation (mean values of 2 years: 15.4 and 14.6° C., May-October). Rainfall was complemented by irrigation throughout carrot growth to avoid water stress. The routine techniques of cultivation and plant protection, recommended for carrot crop production were applied.
# (§2) Plots were arranged in a randomized block design with three replications. In the three sowing dates, each plot consisted of three 4.5 m-long rows. Additionally, plots of three 12 m-long rows were arranged in 18 May 2015. 2-Chloroethylphosphonic acid solution (CERONE® brand ETHEPHON, 39.9% Bayer CropScience, Leverkusen, Germany) was applied as a foliar spray avoiding the rainy days, at rates of 0, 120 and 360 g·ha^−1 a.i. in 2014; 0, 360, and 720 g·ha^−1 a.i. in 2015 for small plots; and 0 and 360 g·ha^−1 a.i. for large plots. Applications were made using a CO2 backpack spaced 50 cm apart, beginning 6 weeks after planting and continuing every 3 weeks, for a total of 6 applications.
# Small plots (4.5 m-long rows) were harvested 21 weeks after sowing. The roots were manually harvested from the middle part of each row.
# In all analyses, 20 whole carrot roots per plot were washed and split lengthwise: 20 halves were ground in liquid nitrogen, and the generated powder was stored at −80° C. for further gene expression analyses; the complementary 20 halves were coarsely ground in a commercial blender, and 50 g of the resulting purée were immediately homogenized in 50 g of a 3% sulfuric acid solution (v/v), by using a Waring two-speed commercial blender (VWR—Bie & Berntsen, Herlev, Denmark). The resulting fine purée (4 g) was subsequently mixed with demineralized water (8 g) and vortexed. After incubation for 1 h at room temperature, the sample was centrifuged 20 min at 4500 rpm, and the supernatant (extract) was utilized for further analyses.
# Soluble solids were calculated with a digital refractometer with automatic temperature compensation and operating range from 0 to 53° Brix. For its calculation, the carrot extract obtained was filtered through 0.45 μm membrane filters, and Brix measurements were performed using 1 mL of the filtrate. For each measurement, two technical replicates were made and their average was reported.
# Dry matter was determined by the mass difference between the fresh sample and the dry sample. The sample was dried 24 h until it reached a constant weight using an oven at 90° C. The results were expressed as percentage of dry matter. For each measurement, two technical replicates were made and their average was reported.
# (§3) TMC was measured spectrophotometrically based on the pH differential method, with slight modifications. The carrot extract was diluted by adding 20 volumes of 0.2 M KCl-HCl pH 1, and TMC was measured at […] and 700 nm (to correct for sediment) using a UV-Vis spectrophotometer (Evolution™ 220, Thermo Fischer Scientific, Waltham, MA, USA). The TMC was expressed as cyaniding-3-glucoside equivalents (ppm).
# All analyses were performed with three technical and three biological replicates. Data were subjected to statistical analysis using SPSS software (version 22, SPSS Inc., Chicago, IL, USA). Treatments were compared using one-way analysis of variance (ANOVA) followed by a Tukey post hoc test. p<0.05 was considered significant.
# [2] = tested on: black carrot (Deep Purple) roots; assay: Field trial, foliar spray on black carrot, large plots with successive harvests 7 to 35 weeks after planting; type: in vivo, Daucus carota ssp. sativus var. atrorubens Alef.
# Method: as §1, §2
# Large plots (12 m-long rows) were harvested several times from separate row segments, during the growing period from 30 Jun. 2015 to 19 Jan. 2016 (7, 10, 13, 16, 19, 22, 25, 26, 29 and 35 weeks after planting). Carrot production was estimated in large plots 21 weeks after planting: two meters per row was dug from each plot, and the carrots were washed and weighed. Measured weights were extrapolated to tons per hectare. […]
# Soluble solids were calculated with a digital refractometer with automatic temperature compensation and operating range from 0 to 53° Brix. […]
# Dry matter was determined by the mass difference between the fresh sample and the dry sample. […] The results were expressed as percentage of dry matter. […]
# as §3, with “(ppm). […]” for “(ppm).”
# [3] = treated plants versus controls (FIG. 1)
smiles,measurement,setting,value
O=P(O)(O)CCCl [2-Chloroethylphosphonic acid],effect of total amount applied on the accumulation of anthocyanin,"[1]; 120, 360 and 720 g ha^-1 a.i. treatments compared, either growing season",no differences were found; also recorded: nonsignificant effect
same,increase of mean anthocyanin concentration of treated plants compared with respective controls,[1]; Harvest 1 (first of three repetitions of two growing seasons),49%
same,increase of mean anthocyanin concentration of treated plants compared with respective controls,[1]; Harvest 2 (second of three repetitions),38%
same,increase of mean anthocyanin concentration of treated plants compared with respective controls,[1]; Harvest 3 (third of three repetitions),65%
same,root weight,[1]; either growing season (FIG. 1),did not affect
same,accumulation of anthocyanin in roots,[1],induced the accumulation of anthocyanin
same,accumulation of anthocyanin in roots,[1]; listed as ethylene-releasing compound,increased amounts of anthocyanin; also recorded: induced the accumulation of anthocyanin
same,increase of mean anthocyanin concentration in the roots of treated plants compared with respective controls (summary),"[1]; pre-harvest foliar spraying on black carrot leaves, over all repetitions",more than 35%
same,dry weight (DW),[1]; [3],lowest values
same,soluble sugar content (SSC),[1]; [3],lowest values
same,root colour in cross and longitudinal sections,[1]; treated roots versus untreated roots with white core (FIG. 2),solid purple colour
same,TMC after the last application,[2]; 7 weeks after the application of the last treatment (22 to 27 weeks after planting) (FIG. 3A),continued to increase
same,"root length, treated versus untreated carrots",[2]; at each harvest time (FIG. 4),differed insignificantly
same,"root weight, treated versus untreated carrots",[2]; at each harvest time (FIG. 4),differed insignificantly
same,mean anthocyanin concentration (TMC) of treated roots versus untreated,"[2]; at every harvest point, 7 to 35 weeks after planting, 360 g ha^-1 a.i.",higher
